In patent publication US10287301B2 (Achillion Pharmaceuticals, Inc., priority 2015, dated 2019):
pIC50: −log10 of the molar value.

Molecular target: Human Factor D (Homo sapiens (Human), UniProt P00746)
Assay: Human Factor D Assay
Assay type: biochemical
Settings: Table 3; Human Factor D 80 nM, substrate Z-L-Lys-SBzl; read-out: IC50 (Stars)
Procedure, shortened: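 First, compound at various concentrations is mixed with 80 nM (final) human serum Factor D in 50 mM Tris, 1M NaCl, pH 7.5 for 5 min at room temperature.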

Human Factor D, sequence (P00746 26-253): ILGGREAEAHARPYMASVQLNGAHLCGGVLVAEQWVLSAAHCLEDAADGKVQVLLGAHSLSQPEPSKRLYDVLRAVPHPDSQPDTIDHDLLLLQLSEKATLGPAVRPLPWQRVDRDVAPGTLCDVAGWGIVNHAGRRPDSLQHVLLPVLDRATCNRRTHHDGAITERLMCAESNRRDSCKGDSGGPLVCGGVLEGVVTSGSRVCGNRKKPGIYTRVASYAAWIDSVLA

Row | Compound | pIC50
1 | CC(=O)c1nn(CC(=O)N2[C@@H]3C[C@@H]3C[C@H]2C(=O)Nc2nc(Br)ccc2C)c2ccc(-c3cnc(N)nc3)cc12 [Compound 446, (1R,3S,5R)-2-(2-(3-Acetyl-5-(2-aminopyrimidin-5-yl)-1H-indazol-1-yl)acetyl)-N-(6-bromo-3-methylpyridin-2-yl)-2-azabicyclo[3.1.0]hexane-3-carboxamide] | > 6.00
2 | CC(=O)c1nn(CC(=O)N2[C@@H]3C[C@@H]3C[C@H]2C(=O)Nc2ccc(F)c(Br)n2)c2ccc(-c3cnc(C)nc3)cc12 [Compound 447, (1R,3S,5R)-2-(2-(3-Acetyl-5-(2-methylpyrimidin-5-yl)-1H-indazol-1-yl)acetyl)-N-(6-bromo-5-fluoropyridin-2-yl)-2-azabicyclo[3.1.0]hexane-3-carboxamide] | > 6.00
3 | CC(=O)c1nn(CC(=O)N2C[C@H](F)C[C@H]2C(=O)Nc2nc(Br)cs2)c2ccc(-c3cnc(C)nc3)cc12 [Compound 448, (2S,4R)-1-(2-(3-Acetyl-5-(2-methylpyrimidin-5-yl)-1H-indazol-1-yl)acetyl)-N-(4-bromothiazol-2-yl)-4-fluoropyrrolidine-2-carboxamide] | > 6.00
4 | CC(=O)c1nn(CC(=O)N2C[C@H](F)C[C@H]2C(=O)Nc2nc(Br)c(C)s2)c2ccc(-c3cnc(C)nc3)cc12 [Compound 449, (2S,4R)-1-(2-(3-Acetyl-5-(2-methylpyrimidin-5-yl)-1H-indazol-1-yl)acetyl)-N-(4-bromo-5-methylthiazol-2-yl)-4-fluoropyrrolidine-2-carboxamide] | > 6.00
5 | COc1ncc(-c2ccc3c(c2)c(C(C)=O)nn3CC(=O)N2C[C@H](F)C[C@H]2C(=O)Nc2ccc(F)c(Br)n2)cn1 [Compound 450, (2S,4R)-1-(2-(3-Acetyl-5-(2-methoxypyrimidin-5-yl)-1H-indazol-1-yl)acetyl)-N-(6-bromo-5-fluoropyridin-2-yl)-4-fluoropyrrolidine-2-carboxamide] | > 6.00
6 | CC(=O)c1nn(CC(=O)N2C[C@H](F)C[C@H]2C(=O)Nc2ccc(F)c(Br)n2)c2ccc(-c3cnc(N)nc3)cc12 [Compound 451, (2S,4R)-1-(2-(3-Acetyl-5-(2-aminopyrimidin-5-yl)-1H-indazol-1-yl)acetyl)-N-(6-bromo-5-fluoropyridin-2-yl)-4-fluoropyrrolidine-2-carboxamide] | > 6.00
7 | CC(=O)O[C@H]1[C@@H](C(=O)Nc2cccc(Br)n2)N(C(=O)Cn2nc(C(C)=O)c3cc(-c4cnc(C)nc4)ccc32)C[C@@H]1F [Compound 452, (2S,3S,4S)-1-(2-(3-Acetyl-5-(2-methylpyrimidin-5-yl)-1H-indazol-1 yl)acetyl)-2-((6-bromopyridin-2-yl)carbamoyl)-4-fluoropyrrolidin-3-yl acetate] | > 6.00
8 | CC(=O)c1nn(CC(=O)N2C[C@H](F)C[C@H]2C(=O)Nc2nc(-c3ccccc3Cl)cs2)c2ccc(-c3cnc(C)nc3)cc12 [Compound 453, (2S,4R)-1-(2-(3-Acetyl-5-(2-methylpyrimidin-5-yl)-1H-indazol-1-yl)acetyl)-N-(4-(2-chlorophenyl)thiazol-2-yl)-4-fluoropyrrolidine-2-carboxamide] | < 5.00
9 | CC(=O)c1nn(CC(=O)N2C3CC3(CN)C[C@H]2C(=O)Nc2cccc(Br)n2)c2ccc(-c3cnc(C)nc3)cc12 (stereo partly drawn) [Compound 454, (3S)-2-(2-(3-Acetyl-5-(2-methylpyrimidin-5-yl)-1H-indazol-1-yl)acetyl)-5-(aminomethyl)-N-(6-bromopyridin-2-yl)-2-azabicyclo[3.1.0]hexane-3-carboxamide] | > 6.00
10 | Cc1cccc(C[C@H](O)[C@@H]2C[C@@H](F)CN2C(=O)Cn2cc(C(N)=O)c3cc(-c4cnc(C)nc4)ccc32)n1 [Compound 455, 1-(2-((2S,4R)-4-fluoro-2-((S)-1-hydroxy-2-(6-methylpyridin-2-yl)ethyl)pyrrolidin-1-yl)-2-oxoethyl)-5-(2-methylpyrimidin-5-yl)-1H-indole-3-carboxamide] | < 5.00
11 | Cc1ncc(-c2ccc3c(c2)c(C(C)F)nn3CC(=O)N2C[C@H](F)C[C@H]2C(=O)Nc2cccc(Br)n2)cn1 (stereo partly drawn) [Compound 456, (2S,4R)—N-(6-Bromopyridin-2-yl)-4-fluoro-1-(2-(3-(1-fluoroethyl)-5-(2-methylpyrimidin-5-yl)-1H-indazol-1-yl)acetyl)pyrrolidine-2-carboxamide] | > 6.00
12 | COc1ncc(-c2ccc3c(c2)c(C(C)=O)nn3CC(=O)N2[C@@H]3C[C@@H]3C[C@H]2C(=O)Nc2ccc(F)c(Br)n2)cn1 [Compound 457, (1R,3S,5R)-2-(2-(3-Acetyl-5-(2-methoxypyrimidin-5-yl)-1H-indazol-1-yl)acetyl)-N-(6-bromo-5-fluoropyridin-2-yl)-2-azabicyclo[3.1.0]hexane-3-carboxamide] | > 6.00
13 | CC(=O)c1nn(CC(=O)N2[C@@H]3C[C@@H]3C[C@H]2C(=O)Nc2ccc(F)c(Br)n2)c2ccc(-c3cnc(N)nc3)cc12 [Compound 458, (1R,3S,5R)-2-(2-(3-Acetyl-5-(2-aminopyrimidin-5-yl)-1H-indazol-1-yl)acetyl)-N-(6-bromo-5-fluoropyridin-2-yl)-2-azabicyclo[3.1.0]hexane-3-carboxamide] | > 6.00
14 | CC(=O)c1nn(CC(=O)N2C[C@H](F)C[C@H]2C(=O)NCC2CC2(Cl)Cl)c2ccc(-c3cnc(C)nc3)cc12 (stereo partly drawn) [Compound 459, (2S,4R)-1-(2-(3-acetyl-5-(2-methylpyrimidin-5-yl)-1H-indazol-1-yl)acetyl)-N-((2,2-dichlorocyclopropyl)methyl)-4-fluoropyrrolidine-2-carboxamide] | > 6.00
15 | CC(=O)c1nn(CC(=O)N2C[C@H](F)C[C@H]2C(=O)NC2C[C@H]2c2ccccc2Cl)c2ccc(-c3cnc(C)nc3)cc12 (stereo partly drawn) [Compound 460, (2S,4R)-1-(2-(3-acetyl-5-(2-methylpyrimidin-5-yl)-1H-indazol-1-yl)acetyl)-N-((2S)-2-(2-chlorophenyl)cyclopropyl)-4-fluoropyrrolidine-2-carboxamide] | > 6.00
16 | CC(=O)c1cn(CC(=O)N2C[C@H](F)C[C@H]2C(=O)NCCCCc2ccccc2)c2ccc(-c3cnc(C)nc3)cc12 [Compound 461, (2S,4R)-1-(2-(3-Acetyl-5-(2-methylpyrimidin-5-yl)-1H-indol-1-yl)acetyl)-4-fluoro-N-(4-phenylbutyl)pyrrolidine-2-carboxamide] | > 6.00
17 | CC(=O)c1nn(CC(=O)N2CC3CC2(C(=O)Nc2cccc(Br)n2)C3)c2ccc(-c3cnc(C)nc3)cc12 [Compound 462, 2-(2-(3-acetyl-5-(2-Methylpyrimidin-5-yl)-1H-indazol-1-yl)acetyl)-N-(6-bromopyridin-2-yl)-2-azabicyclo[2.1.1]hexane-1-carboxamide] | > 6.00
18 | CC(=O)c1nn(CC(=O)N2C[C@H](F)C[C@H]2C(=O)NC2CCCC(C)(C)C2)c2ccc(-c3cnc(C)nc3)cc12 (stereo partly drawn) [Compound 464, (2S,4R)-1-(2-(3-acetyl-5-(2-methylpyrimidin-5-yl)-1H-indazol-1-yl)acetyl)-N-(3,3-dimethylcyclohexyl)-4-fluoropyrrolidine-2-carboxamide] | > 6.00
19 | CC(=O)c1nn(CC(=O)N2C[C@H](F)C[C@H]2C(=O)Nc2cccc(Br)n2)c2ccc(-c3cnc(C)cn3)cc12 [Compound 465, (2S,4R)-1-(2-(3-Acetyl-5-(5-methylpyrazin-2-yl)-1H-indazol-1-yl)acetyl)-N-(6-bromopyridin-2-yl)-4-fluoropyrrolidine-2-carboxamide] | > 6.00
